Experiment [1] addresses T1, Transient receptor potential cation channel subfamily V member 1 (Rattus norvegicus, UniProt O35433). In words: In vitro antagonist effect against 50 nM capsaicin-induced 45 [Ca2+] influx in vanilloid receptor expressing CHO cells (ineffective). Format: functional, cell-based.
The target of experiment [2] is T1, Transient receptor potential cation channel subfamily V member 1. In words: Binding affinity towards rat vanilloid receptor subtype 1 expressed in CHO cells by [3H]RTX displacement. Type of experiment: cell-based.
Experiment [3] has the same target. In words: Agonist effect on 45 [Ca2+] influx in vanilloid receptor expressing CHO cells relative to maximal capsaicin (300 nM) response. Format: functional, cell-based.
The target is the same in experiment [4]. The experiment in a line: Agonist effect on 45 [Ca2+] influx in vanilloid receptor expressing CHO cells relative to maximal capsaicin (300 nM) response, weak effect at 30 µM.
For experiment [5] the target is unchanged. The experiment in a line: In vitro antagonist effect against 50 nM capsaicin-induced 45 [Ca2+] influx in vanilloid receptor expressing CHO cells. Type of experiment: functional, cell-based.
For experiment [6], the target named is Transient receptor potential cation channel subfamily V member 1 (Rattus norvegicus) (UniProt O35433). The experiment in a line: Agonist-induced 45 [Ca2+] influx relative to 300 nM capsaicin in vanilloid receptor expressing CHO cells.
Experiment [7] has the same target. In words: Inhibition of […] nM capsaicin-induced 45 [Ca2+] influx in vanilloid receptor expressing CHO cells. Type of experiment: functional, cell-based.
Experiment [8] deals with T1, Transient receptor potential cation channel subfamily V member 1. The experiment in a line: Agonist effect on 45 [Ca2+] influx in vanilloid receptor expressing CHO cells relative to maximal capsaicin (300 nM) response (ineffective). Type of experiment: functional, cell-based.
In experiment [9] the target is Transient receptor potential cation channel subfamily V member 1 (Rattus norvegicus) (UniProt O35433). The experiment in a line: Inhibition of […] nM capsaicin-induced 45 [Ca2+] uptake in vanilloid receptor expressing CHO cells. Type of experiment: functional, cell-based.

Transient receptor potential cation channel subfamily V member 1 (Rattus norvegicus), sequence (O35433 whole entry): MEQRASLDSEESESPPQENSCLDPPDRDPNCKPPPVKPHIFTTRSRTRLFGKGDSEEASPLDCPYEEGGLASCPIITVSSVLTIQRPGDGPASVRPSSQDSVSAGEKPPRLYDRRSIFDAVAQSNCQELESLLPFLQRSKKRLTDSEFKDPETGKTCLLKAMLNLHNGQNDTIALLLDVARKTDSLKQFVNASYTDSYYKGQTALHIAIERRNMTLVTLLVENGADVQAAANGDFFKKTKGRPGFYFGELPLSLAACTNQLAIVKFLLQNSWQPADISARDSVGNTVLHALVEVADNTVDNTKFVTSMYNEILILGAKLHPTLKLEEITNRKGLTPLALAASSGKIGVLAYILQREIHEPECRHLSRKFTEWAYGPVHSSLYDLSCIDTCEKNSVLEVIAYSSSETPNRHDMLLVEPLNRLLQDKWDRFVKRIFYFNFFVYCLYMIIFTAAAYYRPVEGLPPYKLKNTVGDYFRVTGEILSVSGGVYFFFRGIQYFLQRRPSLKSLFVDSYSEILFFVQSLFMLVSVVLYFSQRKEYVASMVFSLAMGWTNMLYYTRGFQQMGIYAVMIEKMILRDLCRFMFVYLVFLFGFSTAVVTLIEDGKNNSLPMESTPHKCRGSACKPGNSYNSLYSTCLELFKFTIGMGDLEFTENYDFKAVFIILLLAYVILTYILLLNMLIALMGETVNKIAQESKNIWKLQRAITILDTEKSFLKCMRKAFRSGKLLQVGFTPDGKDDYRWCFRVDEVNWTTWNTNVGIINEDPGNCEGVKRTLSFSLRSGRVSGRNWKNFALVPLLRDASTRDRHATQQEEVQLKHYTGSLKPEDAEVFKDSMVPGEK
T1 sequence (O35433 whole entry): as above

On to `COc1cc(C/N=C(\S)N(O)CC(COC(=O)C(C)(C)C)Cc2ccc(C)c(C)c2)ccc1NS(C)(=O)=O` (centres undefined), for which the IC50 result in experiment [1] was “Not Active”. The Ki in experiment [2] turned out to be 396 nM. Besides, the response in [3] was half-maximal at 809 nM (EC50).

For the molecule `CC(C)(C)C(=O)OCC(CNC(=S)NCc1ccc(NS(C)(=O)=O)c(F)c1)Cc1ccc(C(C)(C)C)cc1` (centres undefined), the concentration for a half-maximal effect (EC50) entry in [4] (cho) was “Partially active”. Also, the affinity in [2], expressed as Ki, was 22.6 nM. 52 nM corresponded to half-maximal inhibition in experiment [5] (IC50). This molecule registered an agonist efficacy in experiment [6] of 5%.

As to `Cc1ccc(CC(CNC(=O)Cc2ccc(NS(C)(=O)=O)c(F)c2)COC(=O)C(C)(C)C)cc1C` (centres undefined), in experiment [4] (cho), the EC50 entry is listed as “Partially active”. In experiment [7], this molecule came in with an inhibition of 65%. The agonist efficacy in experiment [6] was 10%.

In the case of `COc1cc(CC(=O)NCC(COC(=O)C(C)(C)C)Cc2ccc(C)c(C)c2)ccc1NS(C)(=O)=O` (centres undefined), the IC50 result in experiment [1] is “Not Active”. In addition, the affinity in experiment [2] corresponds to a Ki of 430 nM. The same molecule registered an EC50 in [3] of 244 nM.

Take `Cc1ccc(CC(COC(=O)C(C)(C)C)CN(O)/C(S)=N/Cc2ccc(NS(C)(=O)=O)cc2F)cc1C` (centres undefined): the EC50 entry in experiment [4] (cho) is listed as “Partially active”. In addition, the IC50 result in [1] was “Not Active”.

With `CC(C)(C)C(=O)OCC(CNC(=O)Cc1ccc(NS(C)(=O)=O)c(F)c1)Cc1ccc(C(C)(C)C)cc1` (centres undefined), the EC50 entry in experiment [4] (cho) is recorded as “Partially active”. This molecule also showed an inhibitory constant (Ki) in experiment [2] of 74 nM. In addition, in [5], the IC50 came out at 440 nM. Further, the inhibition in [7] came to 56%. This molecule had an agonist efficacy in experiment [6] of 7%.

As for `Cc1ccc(CC(COC(=O)C(C)(C)C)CN(O)/C(S)=N/Cc2ccc(NS(C)(=O)=O)c(F)c2)cc1C` (centres undefined), the EC50 entry in experiment [8] was “Not Active”.

For the molecule `Cc1ccc(CC(CNC(=O)Cc2ccc(NS(C)(=O)=O)cc2)COC(=O)C(C)(C)C)cc1C` (centres undefined), the EC50 entry in [4] (cho) is on record as “Partially active”. In [2], this molecule came in with a Ki of 500 nM. In addition, in [5], the IC50 was 460 nM. In addition, the agonist efficacy in [6] amounted to 5.6%.

Regarding `Cc1ccc(CC(CN/C(S)=N/Cc2ccc(NS(C)(=O)=O)cc2)COC(=O)C(C)(C)C)cc1C` (centres undefined), the EC50 result in [4] (cho) is “Partially active”. This molecule also returned an IC50 in [5] of 67 nM.

In the case of `Cc1ccc(CC(COC(=O)C(C)(C)C)CN(O)/C(S)=N/Cc2ccc(NS(C)(=O)=O)cc2)cc1C` (centres undefined), the EC50 result in experiment [4] (cho) is listed as “Partially active”. In addition, the agonist efficacy in experiment [6] came out at 12%.

`COc1cc(CO/C(S)=N/CC(COC(=O)C(C)(C)C)Cc2ccc(C)c(C)c2)ccc1NS(C)(=O)=O` (centres undefined): the EC50 in [4] (read-out: EC50) was 373 nM. Moreover, in [1], the half-maximal inhibitory concentration (IC50) entry was “Not Active”. Moreover, the Ki in [2] was determined as 199 nM.

On to `Cc1ccc(CC(CNC(=S)OCc2ccc(NS(C)(=O)=O)cc2)COC(=O)C(C)(C)C)cc1C` (centres undefined), for which the EC50 result in experiment [4] (cho) is recorded as “Partially active”. The affinity in experiment [2], expressed as Ki, was 336 nM. This molecule registered an inhibition in experiment [9] of 79%. The same molecule returned an IC50 in experiment [5] of 440 nM. Further, in experiment [6], the agonist efficacy was 11%.

Consider `Cc1ccc(CC(CNC(=S)OCc2ccc(NS(C)(=O)=O)c(F)c2)COC(=O)C(C)(C)C)cc1C` (centres undefined), for which, in [4] (cho), the EC50 result is “Partially active”. In addition, the Ki in [2] turned out to be 210 nM. Moreover, the IC50 in experiment [5] is 170 nM. Besides, in [6], the agonist efficacy came to 7.5%.

Regarding `Cc1ccc(CC(CNC(=S)NCc2ccc(NS(C)(=O)=O)c(F)c2)COC(=O)C(C)(C)C)cc1C` (centres undefined), the EC50 entry in experiment [8] is given as “Not Active”. For the same molecule, in experiment [5], the concentration for half-maximal inhibition (IC50) was determined as 7.8 nM.

As to `Cc1ccc(CC(COC(=O)Cc2ccc(NS(C)(=O)=O)cc2)COC(=O)C(C)(C)C)cc1C` (centres undefined), the inhibitory constant (Ki) in experiment [2] stood at 1980 nM. For the same molecule, the EC50 result in experiment [8] is on record as “Not Active”. The same molecule had a half-inhibitory concentration (IC50) in experiment [5] of 3600 nM.

`Cc1ccc(CC(COC(=O)C(C)(C)C)CN(O)/C(S)=N/Cc2ccc(NS(C)(=O)=O)cc2Cl)cc1C` (centres undefined): the Ki in experiment [2] came to 220 nM. For the same molecule, the EC50 entry in experiment [8] is reported as “Not Active”. The molecule also returned a half-maximal inhibitory concentration (IC50) in [5] of 757 nM.

In the case of `Cc1ccc(CC(CNC(=S)N(O)Cc2ccc(NS(C)(=O)=O)cc2)COC(=O)C(C)(C)C)cc1C` (centres undefined), the EC50 result in [4] (cho) was “Partially active”. Also, the IC50 in experiment [5] came to 331 nM. This molecule also displayed an agonist efficacy in [6] of 12%.

As for `CC(C)(C)C(=O)OCC(Cc1ccc(C(C)(C)C)cc1)CN(O)/C(S)=N/Cc1ccc(NS(C)(=O)=O)c(F)c1` (centres undefined), in experiment [4] (cho), the EC50 entry was “Partially active”. The molecule further returned a Ki in [2] of 405 nM. Further, half-maximal inhibition in experiment [5] (IC50) required 10100 nM. Also, in experiment [6], the agonist efficacy was 13%.

As to `Cc1ccc(CC(CNC(=S)N(O)Cc2ccc(NS(C)(=O)=O)c(F)c2)COC(=O)C(C)(C)C)cc1C` (centres undefined), in [4] (cho), the EC50 result is on record as “Partially active”. Besides, the IC50 result in [1] is on record as “Not Active”.

In the case of `COc1cc(C/N=C(\S)NCC(COC(=O)C(C)(C)C)Cc2ccc(C)c(C)c2)ccc1NS(C)(=O)=O` (centres undefined), the IC50 entry in experiment [1] was “Not Active”.

The term IC50 denotes the point on the concentration scale where inhibition reaches its midpoint. A lower IC50 goes with greater potency. Broadly, the Ki is a measure of affinity in units of concentration, obtained from inhibition or displacement. Read a high Ki as a looser hold on the target. The term EC50 denotes the concentration giving half of the maximal effect. In general, inhibition refers to the percentage by which the read-out fell short of the control.

Values taken from ChEMBL document CHEMBL1149228, “Analysis of structure-activity relationships for the 'B-region' of N-(3-acyloxy-2-benzylpropyl)-N(')-[4-(methylsulfonylamino)benzyl]thiourea analogues as vanilloid receptor antagonists: discovery of an N-hydroxythiourea analogue with potent analgesic activity” (Bioorg Med Chem Lett, 2004).
